Source: patent US20150105252A1, “SUBSTITUTED PYRAZOLES AS HERBICIDES” (E I DU PONT DE NEMOURS AND COMPANY, priority 2013, published 2015)

How the values were obtained:
johnsongrass = experiment: Test C preemergence; type: in vivo, Sorghum halepense; conditions: for Plant response rating (scale of 0 to 100), Johnsongrass: Preemergence, 250 g ai/ha
Description: (§1) Seeds of plant species selected from blackgrass (Alopecurus myosuroides), ryegrass, Italian (Italian ryegrass, Lolium multiflorum), wheat (winter wheat, Triticum aestivum), galium (catchweed bedstraw, Galium aparine), corn (Zea mays), crabgrass, large (large crabgrass, Digitaria sanguinalis), foxtail, giant (giant foxtail, Setaria faberii), johnsongrass (Sorghum halepense), lambsquarters (Chenopodium album), morningglory (Ipomoea coccinea), nutsedge, yellow (yellow nutsedge, Cyperus esculentus), pigweed (redroot pigweed, Amaranthus retroflexus), ragweed (common ragweed, Ambrosia elation), soybean (Glycine max), barnyardgrass (Echinochloa crus-galli), oilseed rape (Brassica napus), waterhemp (common waterhemp, Amaranthus rudis), oat, wild (wild oat, Avena fatua), kochia (Kochia scoparia), Surinam grass (Brachiaria decumbens), foxtail, green (green foxtail, Setaria viridis), goosegrass (Eleusine indica), bromegrass, downy (downy bromegrass, Bromus tectorum), nightshade (eastern black nightshade, Solanum ptycanthum), cocklebur (common cocklebur, Xanthium strumarium), cupgrass, woolly (woolly cupgrass, Eriochloa villosa), bermudagrass (Cynodon dactylon), sunflower, (common oilseed sunflower, Helianthus annuus), Russian thistle (Salsola kali), and velvetleaf (Abutilon theophrasti) were planted into a blend of loam soil and sand and treated preemergence with test chemicals formulated in a non-phytotoxic solvent mixture which included a surfactant.
(§2) At the same time, plants selected from these crop and weed species and also chickweed (common chickweed, Stellaria media), canarygrass (littleseed canarygrass, Phalaris minor), and deadnettle (henbit deadnettle, Lamium amplexicaule), were planted in pots containing Redi-Earth® planting medium (Scotts Company, 14111 Scottslawn Road, Marysville, Ohio 43041) comprising spaghnum peat moss, vermiculite, wetting agent and starter nutrients and treated with postemergence applications of test chemicals formulated in the same manner. Plants ranged in height from 2 to 18 cm (1- to 4-leaf stage) for postemergence treatments. Treated plants and controls were maintained in a greenhouse for 13 to 15 days, after which time all species were compared to controls and visually evaluated. Plant response ratings, summarized in Table C, are based on a scale of 0 to 100 where 0 is no effect and 100 is complete control. A dash (-) response means no test result.

soybean = experiment: Test C preemergence; type: in vivo, Glycine max; conditions: for Plant response rating (scale of 0 to 100), Soybean: Preemergence, 250 g ai/ha
Description: as §1, §2

foxtail, giant [1] = experiment: Test A preemergence; type: in vivo, Setaria faberii; conditions: preemergence
Procedure, shortened: (§3)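 Pre- and postemergence greenhouse test; loam+sand; cpd in non-phytotox. solvent/surfactant; post at 1–2 leaf, 2–10 cm; visual score ~10 d, 0 = none, 100 = complete control.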

velvetleaf = experiment: Test C preemergence; type: in vivo, Abutilon theophrasti; conditions: for Plant response rating (scale of 0 to 100), Velvetleaf: Preemergence, 250 g ai/ha
Description: as §1, §2

waterhemp = experiment: Test C preemergence; type: in vivo, Amaranthus rudis; conditions: for Plant response rating (scale of 0 to 100), Waterhemp: Preemergence, 250 g ai/ha
Description: as §1, §2

pigweed = experiment: Test C preemergence; type: in vivo, Amaranthus retroflexus; conditions: for Plant response rating (scale of 0 to 100), Pigweed: Preemergence, 250 g ai/ha
Description: as §1, §2

barnyardgrass [2] = experiment: Test C preemergence; type: in vivo, Echinochloa crus-galli; conditions: for Plant response rating (scale of 0 to 100), Barnyardgrass: Preemergence, 250 g ai/ha
Description: as §1, §2

crabgrass, large = experiment: Test C preemergence; type: in vivo, Digitaria sanguinalis; conditions: for Plant response rating (scale of 0 to 100), Crabgrass, Large: Preemergence, 250 g ai/ha
Description: as §1, §2

foxtail, giant [3] = experiment: Test A postemergence; type: in vivo, Setaria faberii
Procedure, shortened: as §3

foxtail, giant [4] = experiment: Test C preemergence; type: in vivo, Setaria faberii; conditions: for Plant response rating (scale of 0 to 100), Foxtail, Giant: Preemergence, 250 g ai/ha
Description: as §1, §2

corn = experiment: Test C preemergence; type: in vivo, Zea mays; conditions: for Plant response rating (scale of 0 to 100), Corn: Preemergence, 250 g ai/ha
Description: as §1, §2

wheat = experiment: Test A postemergence; type: in vivo, Triticum aestivum
Procedure, shortened: as §3

barnyardgrass [5] = experiment: Test A preemergence; type: in vivo, Echinochloa crus-galli; conditions: preemergence
Procedure, shortened: as §3

[6] = preemergence, 31 g ai/ha, visual rating, scale 0 to 100 (0 no effect, 100 complete control), 13 to 15 days
[7] = preemergence, 62 g ai/ha, scale 0 to 100 (0 no effect, 100 complete control), 13 to 15 days
[8] = preemergence, 125 g ai/ha, scale 0 to 100, 0 is no effect, 100 is complete control
[9] = 125 g ai/ha, visual injury, 0 to 100 scale, approx. 10 days
[10] = 500 g ai/ha, visual injury after approx. 10 days, 0 to 100 scale (0 no effect, 100 complete control)
[11] = preemergence, 31 g ai/ha, scale 0 to 100 (0 no effect, 100 complete control), 13 to 15 days
[12] = Postemergence, 500 g ai/ha, 0 to 100 scale (0 no effect, 100 complete control)
[13] = postemergence, 125 g ai/ha, about 10 days, visual rating on 0 to 100 scale (0 no effect, 100 complete control)
[14] = preemergence, 125 g ai/ha, 13 to 15 days, scale 0 to 100, 0 = no effect, 100 = complete control

With CCONC(=O)c1cc(CC)n(Cc2cc(C(F)(F)F)no2)n1 [Compound 125] the “Plant response rating (scale of 0 to 100), Johnsongrass” value (johnsongrass) was 10, the “Johnsongrass plant response rating” value (johnsongrass; [6]) was 0 and the “Johnsongrass plant response rating” value (johnsongrass; [7]) was 0. The “Johnsongrass plant response rating” value (johnsongrass; [8]) was 5, the “Plant response rating (scale of 0 to 100), Soybean” value (soybean) was 15 and the “Soybean plant response rating” value (soybean; [6]) was 5. For the same compound, the “Soybean plant response rating” value (soybean; [7]) was 5, the “Soybean plant response rating” value (soybean; [8]) was 10 and the “Foxtail, Giant plant response rating” value (foxtail, giant [1]; [9]) was 80. The “Foxtail, Giant plant response rating” value (foxtail, giant [1]; [10]) was 100, the “Plant response rating (scale of 0 to 100), Velvetleaf” value (velvetleaf) was 40 and the “Velvetleaf plant response rating” value (velvetleaf; [6]) was 20. For the same compound, the “Velvetleaf plant response rating” value (velvetleaf; [7]) was 20, the “Velvetleaf plant response rating” value (velvetleaf; [8]) was 30 and the “Plant response rating (scale of 0 to 100), Waterhemp” value (waterhemp) was 90. For the same compound, the “Waterhemp plant response rating” value (waterhemp; [6]) was 65, the “Waterhemp plant response rating” value (waterhemp; [7]) was 65 and the “Waterhemp plant response rating” value (waterhemp; [8]) was 85. For the same compound, the “Plant response rating (scale of 0 to 100), Pigweed” value (pigweed) was 100, the “Pigweed plant response rating” value (pigweed; [6]) was 65 and the “Pigweed plant response rating” value (pigweed; [7]) was 75. For the same compound, the “Pigweed plant response rating” value (pigweed; [8]) was 90, the “Plant response rating (scale of 0 to 100), Barnyardgrass” value (barnyardgrass [2]) was 100 and the “Barnyardgrass plant response rating” value (barnyardgrass [2]; [11]) was 5. For the same compound, the “Barnyardgrass plant response rating” value (barnyardgrass [2]; [7]) was 50, the “Barnyardgrass plant response rating” value (barnyardgrass [2]; [8]) was 80 and the “Plant response rating (scale of 0 to 100), Crabgrass, Large” value (crabgrass, large) was 95. The “Crabgrass, Large plant response rating” value (crabgrass, large; [6]) was 5, the “Crabgrass, Large plant response rating” value (crabgrass, large; [7]) was 25 and the “Crabgrass, Large plant response rating” value (crabgrass, large; [8]) was 75. The “Foxtail, Giant plant response rating” value (foxtail, giant [3]; [12]) was 90, the “Foxtail, Giant plant response rating” value (foxtail, giant [3]; [13]) was 30 and the “Plant response rating (scale of 0 to 100), Foxtail, Giant” value (foxtail, giant [4]) was 90. For the same compound, the “Foxtail, Giant plant response rating” value (foxtail, giant [4]; [6]) was 20, the “Foxtail, Giant plant response rating” value (foxtail, giant [4]; [7]) was 35 and the “Foxtail, Giant plant response rating” value (foxtail, giant [4]; [8]) was 90. The “Plant response rating (scale of 0 to 100), Corn” value (corn) was 45, the “Corn plant response rating” value (corn; [6]) was 0 and the “Corn plant response rating” value (corn; [7]) was 5. The “Corn plant response rating” value (corn; [8]) was 10, the “Wheat plant response rating” value (wheat; [12]) was 60 and the “Wheat plant response rating” value (wheat; [13]) was 0. The “Barnyardgrass plant response rating” value (barnyardgrass [5]; [9]) was 80 and the “Barnyardgrass plant response rating” value (barnyardgrass [5]; [10]) was 100.

In the case of CCOc1cc(C(=O)NC2CC2)nn1Cc1ccnc(OC(F)F)c1 [Compound 133], the “Plant response rating (scale of 0 to 100), Johnsongrass” value (johnsongrass) is reported as 98, the “Johnsongrass plant response rating” value (johnsongrass; [6]) is reported as 40 and the “Johnsongrass plant response rating” value (johnsongrass; [7]) is reported as 85. The “Plant response rating, Johnsongrass” value (johnsongrass; [14]) was 90, the “Plant response rating (scale of 0 to 100), Soybean” value (soybean) was 95 and the “Soybean plant response rating” value (soybean; [6]) was 50. The “Soybean plant response rating” value (soybean; [7]) was 40, the “Plant response rating, Soybean” value (soybean; [14]) was 85 and the “Foxtail, Giant plant response rating” value (foxtail, giant [1]; [9]) was 100. For the same compound, the “Foxtail, Giant plant response rating” value (foxtail, giant [1]; [10]) was 100, the “Plant response rating (scale of 0 to 100), Velvetleaf” value (velvetleaf) was 100 and the “Velvetleaf plant response rating” value (velvetleaf; [6]) was 35. The “Velvetleaf plant response rating” value (velvetleaf; [7]) was 55, the “Plant response rating, Velvetleaf” value (velvetleaf; [14]) was 100 and the “Plant response rating (scale of 0 to 100), Waterhemp” value (waterhemp) was 100. The “Waterhemp plant response rating” value (waterhemp; [6]) was 85, the “Waterhemp plant response rating” value (waterhemp; [7]) was 100 and the “Plant response rating, Waterhemp” value (waterhemp; [14]) was 100. The “Plant response rating (scale of 0 to 100), Pigweed” value (pigweed) was 100, the “Pigweed plant response rating” value (pigweed; [6]) was 100 and the “Pigweed plant response rating” value (pigweed; [7]) was 75. For the same compound, the “Plant response rating, Pigweed” value (pigweed; [14]) was 100, the “Plant response rating (scale of 0 to 100), Barnyardgrass” value (barnyardgrass [2]) was 100 and the “Barnyardgrass plant response rating” value (barnyardgrass [2]; [11]) was 65. The “Barnyardgrass plant response rating” value (barnyardgrass [2]; [7]) was 60, the “Plant response rating, Barnyardgrass” value (barnyardgrass [2]; [14]) was 100 and the “Plant response rating (scale of 0 to 100), Crabgrass, Large” value (crabgrass, large) was 100. The “Crabgrass, Large plant response rating” value (crabgrass, large; [6]) was 100, the “Crabgrass, Large plant response rating” value (crabgrass, large; [7]) was 100 and the “Plant response rating, Crabgrass, Large” value (crabgrass, large; [14]) was 100. The “Foxtail, Giant plant response rating” value (foxtail, giant [3]; [12]) was 100, the “Foxtail, Giant plant response rating” value (foxtail, giant [3]; [13]) was 100 and the “Plant response rating (scale of 0 to 100), Foxtail, Giant” value (foxtail, giant [4]) was 100. The “Foxtail, Giant plant response rating” value (foxtail, giant [4]; [6]) was 85, the “Foxtail, Giant plant response rating” value (foxtail, giant [4]; [7]) was 100 and the “Plant response rating, Foxtail, Giant” value (foxtail, giant [4]; [14]) was 100. The “Plant response rating (scale of 0 to 100), Corn” value (corn) was 95, the “Corn plant response rating” value (corn; [6]) was 5 and the “Corn plant response rating” value (corn; [7]) was 25. For the same compound, the “Plant response rating, Corn” value (corn; [14]) was 45, the “Wheat plant response rating” value (wheat; [12]) was 90 and the “Wheat plant response rating” value (wheat; [13]) was 40. The “Barnyardgrass plant response rating” value (barnyardgrass [5]; [9]) was 90 and the “Barnyardgrass plant response rating” value (barnyardgrass [5]; [10]) was 100.
